The text below walks through data of patent US20240181092A1, “DIAGNOSTIC METHODS OF PROSTATE CANCER” (NOVARTIS AG, priority 2021, published 2024).

“Also recorded” adds a separate entry of the source. Like-named read-outs stand apart in the source and are kept apart here.

For data set [1] the following is noted: human dosimetry, Phase I study; cited from earlier work.
For data set [2] the following is noted: versus urea-based PET compounds; cited from earlier work.
For data set [3] the following is noted: Phase I, 20 prostate cancer patients (n=5 primary staging, n=15 mCRPC), approx. 370 MBq i.v.; cited from earlier work.
A short description of data set [4]: Human dosimetry in the Phase I study. It counts as in vivo. Conditions: i.v. administration of 370 MBq. An excerpt:
For PET diagnostic radiopharmaceuticals, only a single administration is required, usually intravenously. The investigational PET radiopharmaceutical [^18F]CTT1057 will be administered accordingly, as a single intravenous (i.v.) dose of approximately 370 MBq (266-407 MBq). […] Eur J Nucl Med Mol Imaging; 42:328-54). Human dosimetry was studied in the Phase I study. The effective dose was estimated at 0.023±0.007 mSv/MBq, which is in line as well with the effective dose of the commercial product [18F]FDG (0.019 mSv/MBq) according to the EANM guideline (Boellaard R, Delgado-Bolton R, Oyen WJG, et al (2015) FDG PET/CT: EANM procedure guidelines for tumour imaging: version 2.0. Eur J Nucl Med Mol Imaging; 42:328-54) and in other publications (0.020-0.025 mSv/MBq) (Kaushik A, Jaimini A, Tripathi M, et al (2015) Estimation of radiation dose to patients from (18) FDG whole body PET/CT investigations using dynamic PET scan protocol. Indian J Med Res; 142:721-31), as well as the effective dose of other PSMA PET agents (Behr SC, Aggarwal R, VanBrocklin HF, et al (2019) Phase I Study of CTT1057, an 18F-Labeled Imaging Agent with Phosphoramidate Core Targeting Prostate-Specific Membrane Antigen in Prostate Cancer. J Nucl Med; 60(7):910-6). The radiation dose estimated from an i.v. administration of 370 MBq of [18F]CTT1057 is 8.51 mSV. […]

Data set [5] addresses T1, PSMA (Homo sapiens, UniProt Q04609). Also on record: The [^18F]CTT1057 Phase-I study in 20 prostate cancer patients; from tissue; host or cells: tumour lesions in prostate cancer patients, imaged in vivo by PET; results quoted from Behr et al 2019 and Behr et al 2017. The following applies: cited from earlier work.
Data set [6] addresses T1, PSMA. The following applies: phosphoramidate scaffold, irreversible binding; cited from earlier work.
For data set [7] the following is noted: cited from earlier work.
For data set [8] the following is noted: retrospective analysis of 1007 participants; cited from earlier work.
The subject of data set [9] is prostate cancer tumors. The following applies: cited from earlier work.

T1 sequence (Q04609 whole entry): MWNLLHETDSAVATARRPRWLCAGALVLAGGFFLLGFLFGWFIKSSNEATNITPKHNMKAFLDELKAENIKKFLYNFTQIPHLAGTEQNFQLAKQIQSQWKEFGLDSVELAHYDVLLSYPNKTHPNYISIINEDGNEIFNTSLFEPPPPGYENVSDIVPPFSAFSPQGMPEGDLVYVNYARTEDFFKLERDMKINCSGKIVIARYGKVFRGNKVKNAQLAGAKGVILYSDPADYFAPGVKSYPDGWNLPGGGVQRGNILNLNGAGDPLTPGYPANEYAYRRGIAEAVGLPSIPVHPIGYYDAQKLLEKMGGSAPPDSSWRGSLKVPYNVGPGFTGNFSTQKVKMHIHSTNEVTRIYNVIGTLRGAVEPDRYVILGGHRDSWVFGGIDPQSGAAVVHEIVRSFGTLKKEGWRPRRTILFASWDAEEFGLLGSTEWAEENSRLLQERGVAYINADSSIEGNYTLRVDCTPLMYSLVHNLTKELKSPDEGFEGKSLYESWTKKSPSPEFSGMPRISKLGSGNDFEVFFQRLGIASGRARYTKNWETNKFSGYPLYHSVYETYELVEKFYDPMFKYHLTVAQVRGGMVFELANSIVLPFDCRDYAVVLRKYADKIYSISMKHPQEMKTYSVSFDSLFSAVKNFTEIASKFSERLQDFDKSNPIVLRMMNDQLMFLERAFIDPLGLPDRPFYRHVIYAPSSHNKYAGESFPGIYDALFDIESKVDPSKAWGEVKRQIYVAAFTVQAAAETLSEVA

`O=C(O)CC[C@H](NP(=O)(O)OCCC[C@H](NC(=O)CC[C@H](NC(=O)CCCCCNC(=O)c1ccc([18F])cc1)C(=O)O)C(=O)O)C(=O)O` [[^18F]CTT1057]: the effective dose in [1] was 0.023±0.007 mSv/MBq. Further, the “exposure to kidneys and salivary glands” value in data set [2] was “lower exposure to kidneys and salivary glands”. Moreover, in [3], the safety and tolerability entry is “acceptable safety profile without any radiotracer-related adverse reactions; also recorded: safe and well tolerated; also recorded: acceptable safety profile, without any radiotracer-related adverse reactions; also recorded: study has shown an acceptable safety profile without any radiotracer-related”. Further, in data set [4], the “radiation dose estimated from an i.v. administration” value is recorded as 8.51 mSV. Moreover, the “sensitivity of detection of metastatic lesions versus conventional imaging” value in data set [5] (Phase I study) is reported as “higher sensitivity”. For the same compound, in data set [5] (another smaller study (Behr et al 2017)), the “image quality versus [68Ga]Ga-PSMA-11 PET” value is “qualitatively similar”. Further, in [5] (approx. 370 MBq i.v., 1=nondiagnostic, 100=perfect study, rated by 2 Nuclear Medicine physicians), the “image quality on a Visual Analog Scale (VAS) of 1 to 100” value is recorded as 76±5.4. In data set [6], the “binding affinity to PSMA” value was “irreversibly binds to PSMA with high nanomolar affinity”.
As to `OC[C@H]1OC(O)[C@H]([18F])[C@@H](O)[C@@H]1O` (stereo partly shown) [[18F]FDG, [18F]Fluorodeoxyglucose], the effective dose in data set [7] (according to the EANM guideline) is 0.019 mSv/MBq; in data set [7] (other publications (Kaushik et al 2015)), 0.020-0.025 mSv/MBq.
On to `O=C([O-])CN(CCN(CC(=O)[O-])Cc1cc(CCC(=O)NCCCCCC(=O)NCCCC[C@H](NC(=O)N[C@@H](CCC(=O)O)C(=O)O)C(=O)O)ccc1[O-])Cc1cc(CCC(=O)O)ccc1[O-].[68Ga+3].[OH3+]` [[^68Ga]Ga-PSMA-11], for which, in [8], the “tolerability, adverse events following infusion” value is “well tolerated with no adverse events following infusion”. Further, the “detection rates versus [18F]Fluciclovine” value in [9] (after radical prostatectomy, PSA <2.0 ng/ml, per-patient and per-region basis (Calais et al 2018)) is “superior”. The “overall detection rate for prostate cancer recurrence versus [18F]Fluciclovine” value in data set [9] (larger prospective head-to-head study (Pernthaler et al 2019)) is on record as “no statistical differences”.
